Laboratory results as given in patent publication US8298798B2, “Production of C5-C8 alcohols using evolved enzymes and metabolically engineered microorganisms” (The Regents of the University of California, priority 2008, dated 2012).

Target: F381L/V461A KIVD (Lactococcus lactis, UniProt A0A0B8QZ66, form not given/V461A)
Experiment: coupled enzymatic assay of KIVD decarboxylation activity
Type: biochemical
Details: substrate of V461A/F381L KIVD, 30° C., pH 6.8
Description: Protein Expression and Purification. Both gene fragments encoding wild type and F381L/V461A KIVD were amplified from plasmid pZE_LeuABCDKA6 using primers hiskivd_tevfwd and hiskivd_bamrev. After digestion with BamHI, the gene fragments were inserted into expression plasmid pQE9 (Qiagen) to yield pQE_hiskivd_wt and pQE_hiskivd_FL. The ADH6 gene fragment was amplified from yeast genomic DNA using primers hisadh_tevfwd and hisadh_bamrev, digested with BamHI and inserted into pQE9 to generate pQE_hisadh6. Similarly, genes encoding G462D and G462D/S139G LeuA were amplified from plasmid pZE_LeuABCDKA6 using primers hisleua_tevfwd and hisleua_bamrev. After digestion with BamHI, the PCR products were ligated into pQE9 to create pQE_hisleua_GD and pQE_hisleua_GS. […]
Enzymatic Assay of KIVD. […] Inc. Protein concentration was determined by measuring UV absorbance at 280 nm. The decarboxylation activity of KIVD was measured at 30° C. using a coupled enzymatic assay method. […] The reactions were started by adding 2 μl KIVD (final concentration: for KIV, 20 nM wt KIVD, 200 nM F381L/V461A KIVD; for KHV, 50 nM both), and the consumption of NADPH was monitored at 340 nm (extinction coefficient, 6.22 mM^−1 cm^−1). Kinetic parameters (kcat and Km) were determined by fitting initial velocity data to the Michaelis-Menten equation using Origin.

Row | Compound | Km [mM]
1 | CC(C)C(=O)C(=O)O [2-Ketoisovalerate] | 7.7
2 | CC[C@H](C)CC(=O)C(=O)O [(S)-2-keto-4-methylhexanoate] | 0.22
